Three molecules from paper PMC11391541, “Target-Directed Dynamic Combinatorial Chemistry Affords Binders of Mycobacterium tuberculosis IspE” (ACS Omega, 2024) can be followed below.

Test [1] deals with T1, MtbIspE (Mycobacterium tuberculosis, UniProt P9WKG7). Put plainly: target-directed dynamic combinatorial chemistry (tdDCC), amplification of acylhydrazones in protein-templated vs blank DCL (HPLC-MS/MS, UV 310 nm). The format is binding. How it is done:
In this study, we used MtbIspE as target protein and the reversible reaction of hydrazides and aldehydes to form dynamic combinatorial libraries (DCLs) of acylhydrazones. […] To accelerate the reaction at neutral pH, aniline was used as nucleophilic catalyst activating the aldehydes.[2],[4],[19] We analyzed the protein’s effect on the DCLs by comparing HPLC-MS/MS data of blank vs protein-templated (PT) experiments. The experiments spanned 3 days, with periodic sampling (every 2 h, followed by two samples per day after 8 h). The addition of NaOH to raise the pH and halt the reactions ensured the sample composition was preserved for analysis.[19] Templated experiments were conducted in duplicate, and the protein was denatured and removed prior to HPLC-MS/MS analysis.
The tdDCC hits and thus potential MtbIspE binders are amplified in the PT experiment compared to the blank experiment. The first step in the analysis of DCLs is the determination of the equilibrium since the amplification factors need to be calculated when the concentration of products is stable. To determine the evolution of the possible products, it is important to measure the characteristic UV absorbance of the acylhydrazones linker (310 nm) during the HPLC-MS/MS run. The resulting UV peaks are assigned to each product using the MS data (Figures S3–S6). The sum of all peak areas is normalized to 100% in order to obtain the respective relative peak area (RPA) for each product. The RPA values represent relative concentrations, determined at each time point of the blank experiment until the values stabilize. […] However, the rest of the compounds are out of range, making a visual inspection difficult. […] The other three libraries behaved in the same way, reaching equilibrium within 24 h and also maintained stable concentrations beyond (Figures S7–S9). To determine the tdDCC hits, we compared the RPAs of the PT experiments to the blanks at 24 h and set a threshold of at least 50% increase in compound formation. In total, 11 acylhydrazones passed our criteria, with amplification factors ranging from […] to 15.5, qualifying them for resynthesis and further evaluation (Figure 3). During the analysis of chromatograms, challenges arose concerning product identification. Some compound peaks were not neatly separated, forcing us to consider them in clusters, others presented two peaks, likely due to isomers, and were considered separately in our evaluation. Lastly, some compounds were detected by MS, but their respective UV signal interfered with the injection peak or was too low for integration (<1%), both in the blank and PT experiments. Consequently, we excluded these compounds from the analysis (Figure S3–S6).
To a well of a 24-well plate, containing Tris buffer (pH 7.0) were added hydrazides (300 μM each, in DMSO), aldehydes (100 μM each, in DMSO), aniline (20 mM, in DMSO), the protein MtbIspE (25 or 40 μM in Tris buffer at pH 7.0), and an additional amount of DMSO to reach a final concentration of 5% in the DCL with 0.5 mL of end-volume. The DCL was allowed to mix on a plate shaker at room temperature and was frequently monitored via LCMS-MS. For analysis, 30 μL of the corresponding library was mixed with 42 μL acetonitrile and 3 μL of NaOH (1 M), the mixture was centrifuged, and the supernatant was used for the analysis. PT experiments were run in duplicates and the protein was omitted for the blank experiments.
High-resolution mass (HRMS) of final products was determined by HPLC-MS/MS using a Thermo Scientific Q Exactive Focus Orbitrap LC -MS/MS system. All compounds were analyzed for purity by LCMS on Acquity UPLC-SQD system from Waters with a gradient elution of Water (Formic acid 0.1%)/Acetonitrile on an HSS - T3 column (2.1 x 50 mm, Waters), 1.8 µm, at 30°C, PDA detection between 240 -320 nm, and MS detection by simultaneous ES+/ES- ionization in a mass range of 150 -800. The flow is set to 0.9 ml/min, and the […]
gradient time is 1.5 min. […]

Test [2] has as its target T1, MtbIspE. Briefly: MtbIspE binding study via thermal shift assay. The note with it: read-out: MtbIspE ΔTm at 20 μM.
The next test concerns MtbH37Rv. Format: cell-based, Mycobacterium tuberculosis.
The next test concerns EcTolC. Put plainly: microbe, parasite or virus in culture. Format: cell-based. The note with it: Escherichia coli, 18 h, LB medium, read-out: EcTolC %inh. At 50 μM.
The test system of a further test is EcK12. Briefly: E. coli growth inhibition, wild-type strain K12. The format is cell-based, Escherichia coli. The note with it: 18 h, LB medium; for inhibition at 50 µM: Escherichia coli, read-out: EcK12 %inh. At 50 μM.

T1 sequence (P9WKG7 whole entry): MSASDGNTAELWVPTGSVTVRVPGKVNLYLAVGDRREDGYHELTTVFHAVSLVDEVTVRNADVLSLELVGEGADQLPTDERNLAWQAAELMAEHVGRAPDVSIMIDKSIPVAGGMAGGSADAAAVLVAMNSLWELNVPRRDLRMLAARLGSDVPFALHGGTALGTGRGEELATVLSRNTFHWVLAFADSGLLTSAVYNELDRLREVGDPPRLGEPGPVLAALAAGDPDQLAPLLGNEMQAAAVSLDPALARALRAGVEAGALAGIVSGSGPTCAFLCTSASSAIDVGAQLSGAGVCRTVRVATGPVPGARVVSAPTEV

The term ΔTm denotes the change in melting temperature against a reference sample. Regarding `COc1ccc(-c2cc(/C=N/NC(=O)c3cc(CC(C)C)n[nH]3)no2)cc1` [D6, (E)-3-Isobutyl-N′-((5-(4-methoxyphenyl)isoxazol-3-yl)methylene)-1H-pyrazole-5-carbohydrazide], the “Amplification factors (DCL-4)” value on MtbIspE [1] (DCL-4, 24 h, 40 mol % MtbIspE) worked out at 1.0. Moreover, the ΔTm at 20 µM at MtbIspE [2] is less than 0.3 °C. The “MtbH37Rv MIC90” value in the test on MtbH37Rv is recorded as “no inh. at max. sol”. The inhibition at 50 µM in the test on EcTolC is 39 ± 6%; in the test on EcK12, less than 10%.

With `O=C(N/N=C/c1ccc(C(F)(F)F)cc1)c1cccc(Cl)c1` [K4, (E)-3-Chloro-N′-(4-(trifluoromethyl)benzylidene)benzohydrazide], the “Amplification factor (DCL-2, control compound)” value at MtbIspE [1] (DCL-2, 40 mol % MtbIspE) was found to be 0.0. Also, on MtbIspE [2], the ΔTm at 20 µM was 0.7 °C. Further, the “MtbH37Rv MIC90” value in the test with MtbH37Rv is “no inh. at max. sol”. Also, the inhibition at 50 µM was 38 ± 4% with EcTolC and 12 ± 4% with EcK12.

Consider `O=C(N/N=C/c1cc(Cl)ccc1O)c1ccncc1` [L1, (E)-N′-(5-Chloro-2-hydroxybenzylidene)isonicotinohydrazide], for which the “Amplification factors (DCL-3)” value on MtbIspE [1] (DCL-3, 24 h, 40 mol % MtbIspE, I1 and K1 integrated as one cluster) was 4.1. Moreover, the thermal shift (ΔTm) at 20 µM at MtbIspE [2] is less than 0.3 °C. In the test with MtbH37Rv, the “MtbH37Rv MIC90” value is on record as “no inh. at max. sol”. In addition, the inhibition at 50 µM came out at 52 ± 3% in the test with EcTolC and 18 ± 6% in the test on EcK12. Moreover, the “EcK12 %inh. At 50 μM” value in the test on EcK12 is “appreciable effect”.
